Legend:
Assay type in all cases: cell-based
NCI-H1963 = assay: SCLC cell viability assay (CellTiter-Glo), NCI-H1963; conditions: Homo sapiens, 72 h; NCI-H1963, 3 days; read-out: IC50, 50% cell growth inhibition
Procedure: (§1) SCLC cell lines NCI-H526 (“H526”), NCI-H524 (“H524”), NCI-H146 (“H146”), NCI-H1963 (“H1963”) and SW-1271 were obtained from the American Type Culture Collection (ATCC). COR-L95 cells were obtained from Millipore Sigma (#96020733). SBC-5 cells were obtained from the Japanese Collection of Research Bioresources Cell Bank (JCRB).
(§2) SCLC cell lines (shown in Table 2, column 1) were plated in white 384-well plates (Corning® 3765) at 1,000-2,000 cells/30 μl RPMI-1640 base media containing 10% heat-inactivated FBS (fetal bovine serum). Cell plates were incubated overnight at 37° C. in 5% CO2. Using a Tecan D300e Digital Dispenser, a dose response using a stock concentration of ADC or solution containing Example 1G and DMSO (dimethyl sulfoxide) was applied to the cells on day 0 and incubated for an additional 10 days (ADCs) or 3 days (Example 1G) at 37°° C. in 5% CO2. Samples were run in duplicate. Cell viability was assessed with the CellTiter-Glo™ Luminescent Cell Viability Assay (Promega, #G7570) according to the manufacturer's instructions, with the exception that the plates were shaken for 30 minutes prior to reading. Luminescence was read on the BioTek Synergy Neo2, and data was analyzed using GraphPad Prism software.

[1] = test system: A375 cells (malignant melanoma); assay: Cell proliferation (CellTiter-Glo luminescence), A375; conditions: Homo sapiens, A-375, read-out: EC50, TOP1i compound potency, A375
Excerpt: Proliferation of Calu-6 cells (lung adenocarcinoma) and A375 cells (malignant melanoma) were quantified using CellTiter-Glo® luminescence.

NCI-H524 = assay: SCLC cell viability assay (CellTiter-Glo), NCI-H524; conditions: Homo sapiens, 72 h; NCI-H524, 3 days; read-out: IC50, 50% cell growth inhibition
Procedure: as §1, §2

[2] = test system: Calu-6 cells (lung adenocarcinoma); assay: Cell proliferation (CellTiter-Glo luminescence), Calu-6; conditions: Homo sapiens, Calu-6, read-out: EC50, TOP1i compound potency, Calu-6
Procedure: The effect of TOP1i drugs on cell viability was assessed by monitoring ATP presence for metabolically active cells. Proliferation of Calu-6 cells (lung adenocarcinoma) and A375 cells (malignant melanoma) were quantified using CellTiter-Glo® luminescence.

NCI-H146 = assay: SCLC cell viability assay (CellTiter-Glo), NCI-H146; conditions: Homo sapiens, 72 h; NCI-H146, 3 days; read-out: IC50, 50% cell growth inhibition
Procedure: as §1, §2

SBC-5 = assay: SCLC cell viability assay (CellTiter-Glo), SBC-5; conditions: Homo sapiens, 72 h; SBC-5, 3 days; read-out: IC50, 50% cell growth inhibition
Procedure: as §1, §2

NCI-H526 = assay: SCLC cell viability assay (CellTiter-Glo), NCI-H526; conditions: Homo sapiens, 72 h; NCI-H526, 3 days; read-out: IC50, 50% cell growth inhibition
Procedure: as §1, §2

SW-1271 = assay: SCLC cell viability assay (CellTiter-Glo), SW-1271; conditions: SW1271, 72 h; SW-1271, 3 days; read-out: IC50, 50% cell growth inhibition
Procedure: as §1, §2

SCLC cell lines = assay: SCLC cell viability assay, summary over the cell line panel; conditions: all SCLC cell lines tested, TOP1 inhibitor alone
Procedure: as §1
as §2, with “software. […]” for “software.”

COR-L95 = assay: SCLC cell viability assay (CellTiter-Glo), COR-L95; conditions: 72 h; COR-L95, 3 days; read-out: IC50, 50% cell growth inhibition
Procedure: as §1, §2

`CC[C@@]1(O)C(=O)OCc2c1cc1n(c2=O)Cc2c-1nc1cc3c(cc1c2C12CC(N)(C1)C2)OCO3` [Example 1G, (7S)-14-(3-aminobicyclo[1.1.1]pentan-1-yl)-7-ethyl-7-hydroxy-2H,10H-[1,3]dioxolo[4,5-g]pyrano[3′,4′:6,7]indolizino[1,2-b]quinoline-8,11(7H,13H)-dione] gave an IC50 (NCI-H1963) of 6.28 nM, an EC50 [1] of 0.5 nM and an IC50 (NCI-H524) of 1.68 nM. For the same molecule, the EC50 [2] was 0.57 nM, the IC50 (NCI-H146) was 21.6 nM and the IC50 (SBC-5) was 1.26 nM. The IC50 (NCI-H526) was 0.2 nM, the IC50 (SW-1271) was 2.49 nM and the “IC50 in all cell lines” value (SCLC cell lines) was “sub-to low-nM”. The IC50 (COR-L95) was 5.71 nM.

From patent US20250032631A1, “ANTI-SEZ6 ANTIBODY DRUG CONJUGATES” (AbbVie Inc., priority 2022, published 2025)
